Experimental data: the NIST ThermoML archive (doi:10.1016/j.tca.2013.03.013)
Numbers after ± are expanded uncertainties.

Conditions: Crystal

Normal melting temperature (DTA): 261.4 ± 0.7 °C | Normal melting temperature (visual observation): 262.00 ± 0.5 °C
Compound: CC1(C)O[C@@H]2C[C@H]3[C@@H]4C[C@H](F)C5=CC(=O)C=C[C@]5(C)[C@@]4(F)[C@@H](O)C[C@]3(C)[C@]2(C(=O)CO)O1 [fluocinolone acetonide]
